Assay results as given in ChEMBL document CHEMBL1147697, “Synthesis and structure-activity relationship of a novel, achiral series of TNF-alpha converting enzyme inhibitors” (Bioorg Med Chem Lett, 2006).

Assays:
[1] = Tmax in Beagle dog at 10 mg/kg, po; assay type: ADME, organism-based, Canis lupus familiaris; parameters: dose 10 mg/kg, route oral; conditions: in vivo
[2] = Volume of distribution in Sprague-Dawley rat at 2 mg/kg, iv; assay type: ADME, organism-based; parameters: dose 2 mg/kg, route intravenous; conditions: in vivo, read-out: Vdss
[3] = Half life in Sprague-Dawley rat at 30 mg/kg, po; assay type: ADME, organism-based; parameters: dose 30 mg/kg, route oral; conditions: in vivo
[4] = Half life in Beagle dog at 2 mg/kg, iv; assay type: ADME, organism-based, Canis lupus familiaris; parameters: dose 2 mg/kg, route intravenous; conditions: in vivo
[5] = AUC in Beagle dog at 10 mg/kg, po; assay type: ADME, organism-based, Canis lupus familiaris; parameters: dose 10 mg/kg, route oral; conditions: plasma
[6] = AUC in Sprague-Dawley rat at 30 mg/kg, po; assay type: ADME, organism-based; parameters: dose 30 mg/kg, route oral; conditions: plasma
[7] = Half life in Beagle dog at 10 mg/kg, po; assay type: ADME, organism-based, Canis lupus familiaris; parameters: dose 10 mg/kg, route oral; conditions: in vivo
[8] = Clearance in Beagle dog at 2 mg/kg, iv; assay type: ADME, organism-based, Canis lupus familiaris; parameters: dose 2 mg/kg, route intravenous; conditions: in vivo
[9] = Volume of distribution in Beagle dog at 2 mg/kg, iv; assay type: ADME, organism-based, Canis lupus familiaris; parameters: dose 2 mg/kg, route intravenous; conditions: in vivo, read-out: Vdss
[10] = Cmax in Beagle dog at 10 mg/kg, po; assay type: ADME, organism-based, Canis lupus familiaris; parameters: dose 10 mg/kg, route oral; conditions: in vivo
[11] = Oral bioavailability in Beagle dog at 10 mg/kg, po; assay type: ADME, organism-based, Canis lupus familiaris; conditions: in vivo
[12] = Clearance in Sprague-Dawley rat at 2 mg/kg, iv; assay type: ADME, organism-based; parameters: dose 2 mg/kg, route intravenous; conditions: in vivo
[13] = AUC in Beagle dog at 2 mg/kg, iv; assay type: ADME, organism-based, Canis lupus familiaris; parameters: dose 2 mg/kg, route intravenous; conditions: plasma
[14] = Cmax in Sprague-Dawley rat at 30 mg/kg, po; assay type: ADME, organism-based; parameters: dose 30 mg/kg, route oral; conditions: in vivo
[15] = AUC in Sprague-Dawley rat at 2 mg/kg, iv; assay type: ADME, organism-based; parameters: dose 2 mg/kg, route intravenous; conditions: plasma
[16] = Tmax in Sprague-Dawley rat at 30 mg/kg, po; assay type: ADME, organism-based; parameters: dose 30 mg/kg, route oral; conditions: in vivo
[17] = Stability in chimp liver S9 fraction after 30 mins; assay type: ADME, Pan troglodytes; conditions: chimpanzee, read-out: Stability
[18] = Stability in human liver S9 fraction after 30 mins; assay type: ADME, organism-based; conditions: read-out: Stability
[19] = Half life in Sprague-Dawley rat at 2 mg/kg, iv; assay type: ADME, organism-based; parameters: dose 2 mg/kg, route intravenous; conditions: in vivo
[20] = Oral bioavailability in Sprague-Dawley rat at 30 mg/kg, po; assay type: ADME, organism-based; conditions: in vivo
[21] = Partition coefficient, logP of the compound; assay type: physicochemical; conditions: octanol/water
[22] = Dissociation constant, pKa of the compound; assay type: physicochemical
[23] = Cmax in Beagle dog at 1 mg/kg, po; assay type: ADME, organism-based, Canis lupus familiaris; parameters: dose 1 mg/kg, route oral; conditions: in vivo
[24] = Volume of distribution in Beagle dog at 0.5 mg/kg, iv; assay type: ADME, organism-based, Canis lupus familiaris; parameters: dose 0.5 mg/kg, route intravenous; conditions: in vivo, read-out: Vdss
[25] = Clearance in Beagle dog at 0.5 mg/kg, iv; assay type: ADME, organism-based, Canis lupus familiaris; parameters: dose 0.5 mg/kg, route intravenous; conditions: in vivo
[26] = test system: Rattus norvegicus; assay: AUC in Sprague-Dawley rat at 3.3 mg/kg, iv; assay type: ADME, organism-based, Plasma; parameters: dose 3.3 mg/kg, route intravenous; conditions: in vivo
[27] = Oral bioavailability in Beagle dog at 1 mg/kg, po; assay type: ADME, organism-based, Canis lupus familiaris; conditions: in vivo
[28] = AUC in Beagle dog at 0.5 mg/kg, iv; assay type: ADME, organism-based, Canis lupus familiaris; parameters: dose 0.5 mg/kg, route intravenous; conditions: plasma
[29] = Tmax in Sprague-Dawley rat at 6.7 mg/kg, po; assay type: ADME, organism-based; parameters: dose 6.7 mg/kg, route oral; conditions: in vivo
[30] = Volume of distribution in Sprague-Dawley rat at 3.3 mg/kg, iv; assay type: ADME, organism-based; parameters: dose 3.3 mg/kg, route intravenous; conditions: in vivo, read-out: Vdss
[31] = Half life in Sprague-Dawley rat at 3.3 mg/kg, iv; assay type: ADME, organism-based; parameters: dose 3.3 mg/kg, route intravenous; conditions: in vivo
[32] = Stability in rat liver S9 fraction after 30 mins; assay type: ADME, organism-based; conditions: read-out: Stability
[33] = Stability in dog liver S9 fraction after 30 mins; assay type: ADME, organism-based, Canis lupus familiaris; conditions: read-out: Stability
[34] = Tmax in Beagle dog at 1 mg/kg, po; assay type: ADME, organism-based, Canis lupus familiaris; parameters: dose 1 mg/kg, route oral; conditions: in vivo
[35] = Half life in Sprague-Dawley rat at 6.7 mg/kg, po; assay type: ADME, organism-based; parameters: dose 6.7 mg/kg, route oral; conditions: in vivo
[36] = Half life in Beagle dog at 0.5 mg/kg, iv; assay type: ADME, organism-based, Canis lupus familiaris; parameters: dose 0.5 mg/kg, route intravenous; conditions: in vivo
[37] = Clearance in Sprague-Dawley rat at 3.3 mg/kg, iv; assay type: ADME, organism-based; parameters: dose 3.3 mg/kg, route intravenous; conditions: in vivo
[38] = Half life in Beagle dog at 1 mg/kg, po; assay type: ADME, organism-based, Canis lupus familiaris; parameters: dose 1 mg/kg, route oral; conditions: in vivo
[39] = test system: Rattus norvegicus; assay: Oral bioavailability in Sprague-Dawley rat at 6.7 mg/kg, po; assay type: ADME, organism-based; conditions: in vivo
[40] = test system: Rattus norvegicus; assay: AUC in Sprague-Dawley rat at 6.7 mg/kg, po; assay type: ADME, organism-based, Plasma; parameters: dose 6.7 mg/kg, route oral; conditions: in vivo
[41] = AUC in Beagle dog at 1 mg/kg, po; assay type: ADME, organism-based, Canis lupus familiaris; parameters: dose 1 mg/kg, route oral; conditions: plasma
[42] = Cmax in Sprague-Dawley rat at 6.7 mg/kg, po; assay type: ADME, organism-based; parameters: dose 6.7 mg/kg, route oral; conditions: in vivo

Cc1cc(COc2ccc(C(=O)NC3(CC(=O)NO)CCOCC3)cc2)c2ccccc2n1
Tmax [1]: 0.75 h
Vd [2]: 0.7 L/kg
half-life [3]: 1.8 h
half-life [4]: 4.2 h
AUC [5]: 7720 nM·h
AUC [6]: 4860 nM·h
half-life [7]: 4 h
clearance [8]: 2.3 L/h/kg
Vd [9]: 2.5 L/kg
Cmax [10]: 4.49 µM
bioavailability [11]: 79%
clearance [12]: 1.6 L/h/kg
AUC [13]: 1970 nM·h
Cmax [14]: 3.75 µM
AUC [15]: 2210 nM·h
Tmax [16]: 0.4 h
remaining at 0.5 h [17]: 36.7%
remaining at 0.5 h [18]: 83.8%
half-life [19]: 0.3 h
bioavailability [20]: 15%

Cc1cc(COc2ccc(C(=O)NC3(CC(=O)NO)CCN(C(C)(C)C)CC3)cc2)c2ccccc2n1
logP [21]: 1.95
pKa [22]: 9

Cc1cc(COc2ccc(C(=O)NC3(CC(=O)NO)CCN(C4=NCCS4)CC3)cc2)c2ccccc2n1
logP [21]: 2.78
pKa [22]: 7.23

Cc1cc(COc2ccc(C(=O)NC3(CC(=O)NO)CCN(CC(C)(C)C)CC3)cc2)c2ccccc2n1
logP [21]: 3.66
pKa [22]: 7.75

Cc1cc(COc2ccc(C(=O)NC3(CC(=O)NO)CCNCC3)cc2)c2ccccc2n1
Cmax [23]: 0.126 µM
Vd [24]: 0.3 L/kg
clearance [25]: 0.3 L/h/kg
AUC [26]: 11359 nM·h
bioavailability [27]: 8%
AUC [28]: 2180 nM·h
Tmax [29]: 0.3 h
Vd [30]: 0.3 L/kg
half-life [31]: 2.1 h
remaining at 0.5 h [32]: 100%
remaining at 0.5 h [33]: 100%
Tmax [34]: 0.63 h
half-life [35]: 2.2 h
half-life [36]: 1.5 h
clearance [37]: 0.6 L/h/kg
logP [21]: 2.13
half-life [38]: 2.1 h
remaining at 0.5 h [17]: 100%
F [39]: 17%
remaining at 0.5 h [18]: 92%
AUC [40]: 8358 nM·h
pKa [22]: 8.4
AUC [41]: 343 nM·h
Cmax [42]: 2.48 µM

Cc1cc(COc2ccc(C(=O)NC3(CC(=O)NO)CCCCC3)cc2)c2ccccc2n1
logP [21]: 1.62
pKa [22]: 10.1

Cc1cc(COc2ccc(C(=O)NC3(CC(=O)NO)CCN(CCF)CC3)cc2)c2ccccc2n1
logP [21]: 2.7
pKa [22]: 7.2

CCS(=O)(=O)CCN1CCC(CC(=O)NO)(NC(=O)c2ccc(OCc3cc(C)nc4ccccc34)cc2)CC1
logP [21]: 2.48
pKa [22]: 6.06

C#CC(C)(C)N1CCC(CC(=O)NO)(NC(=O)c2ccc(OCc3cc(C)nc4ccccc34)cc2)CC1
logP [21]: 3.43
pKa [22]: 6.58
